# Legend:
# [1] = system: chick embryo dorsal root ganglion; test: in vitro serum-free culture model of chick embryonic dorsal root ganglion: neurite growth score with NGF; format: cell-based; details: 48 h, score 0-3, average of five ganglions, control 0.33
# Description: The neurotrophic activity of the compounds according to the invention can be embodied in multiple in vitro biological models, such as in vitro serum-free culture model of chick embryonic dorsal root ganglion.
# Experimental method: in a sterile environment, chick embryo, which had been incubated for 8 d, had the spinal and bilateral ganglion exposed under anatomical lens. Dorsal root ganglions were picked one by one using sharp forceps, and seeded in culture bottles spread with rat tail collagen, at a density of 5-6 ganglions per bottle, and two bottles for each dose. After attachment culture in a 37° C., 5% CO2 incubator for 1 h, serum-free medium DMEM containing nerve growth factor (NGF) (0.15 ng/mL), and the compound according to the invention were added. In the control group, only the medium and the same dose of NGF were added. After culture in the incubator for 48 h, the growth of neurite around dorsal root ganglion was observed under inverted phase contrast microscope, which was scored depending on the length and density of neurite.
# Evaluation criteria: 0: no neurite; 1: rare long neurite; 2: relatively long or dense neurite; 3: long and dense neurite.
# [2] = system: BCAO-LBP mice (incomplete global cerebral ischemia); test: mouse BCAO-LBP model of incomplete global cerebral ischemia: cerebral MDA content and neurological function score; format: in vivo, Kunmin mice
# Text: In the Example, Kunmin mice were used as experimental subjects, intragastric (i.g.) administration was used, mouse BCAO-LBP (bilateral carotid artery occlusion with low blood pressure) model was used, and by determining neurological function score and the cerebral malondialdehyde (MDA) content in mice, the compounds were investigated for their protective effects on incomplete global cerebral ischemia in mice when administered prophylactically.
# 2.1.2 Preparation of a drug for intragastric administration: the compound was prepared to a 1.5 mg/ml solution using 0.7% CMC-Na solution.
# 28 mice, which had adapted to the laboratory environment for 1 week, were evenly grouped depending on body weight. The mice were intragastrically administered with 0.7% CMC-Na or one of the compounds, once/d, for 3 d. The groups were as followed:
# Administration group: 12 mice, intragastrically administered at a dose of 0.2 ml/10 g, i.e., the dose of the compound was 30 mg/kg.
# 2.3.1 Mouse bilateral carotid artery ligation: 1 h after the last administration, the mice were subjected to orbital bloodletting to reduce blood pressure (which was about 30% of the total blood volume of the mice), and then fixed in supine position on the operating table, and cut in the middle of neck. Carotid artery was subjected to blunt dissection, and 2 lines were used in ligation for each side. The time counting started after the ligation with the third line, the carotid artery was cut off between the two lines, and the incision was sewn up. In the Sham-operated group, the carotid artery was only separated without ligation. After the operation, the mice were unfixed quickly, and the mice were observed and recorded for the behaviors within 6 h (scoring depending on the following table using blind method) and the death time. The brains were taken quickly after the mice died, the cerebellums were removed, and the MDA content in the whole cerebrum was determined by thiobarbituric acid (TBA).
# The cerebra of mice were taken and weighed, and were prepared into 15% brain homogenate using N.S. 1.2 ml brain homogenate was placed in a 37° C. water bath for 1 h (shaking once every 10 min) and then taken out. 20% trichloroacetic acid 0.6 ml was added, and the mixture was mixed well, and was on standing for 10 min. After centrifugation at 2000 rpm for 10 min, to 1.2 ml supernatant, 0.67% TBA 0.6 ml was added. The mixture was placed in a boiling water bath for 10 min, and was taken out for cooling, and the OD value at a wavelength of 532 nm was determined.
# The experimental data was expressed as x±SEM; SPSS 13.0 statistic software was used. Homogeneity or heterogeneity of variance was determined by one-factor analysis of variance. In the case of homogeneity of variance, LSD test was used; in the case of heterogeneity of variance, Dunnett's T3 test was used. Significant difference among different groups was compared, and P<0.05 indicated statistical significance.
# in vitro = details: dog, MDCK-MDR1
# Text: MDCK-MDR1 cells were monolayer cells which highly express P-gp transporter after transfection of MDCK (Madin-Darby canine kidney epithelial cell) with MDR1 gene. Due to its density and high expression of efflux protein, the monolayer has similarity compared to blood-brain barrier (BBB) structure and now can be used as one of models for evaluating the ability of passing through BBB. In the invention, MDCK-MDR1 cells were used to study the membrane permeability of the compounds according to the invention, and to primarily evaluate its ability of passing through BBB.
# The frozen MDCK-MDR1 cells were quickly thawed in a 37° C. water bath. To the resuscitated cells, DMEM medium containing 10% FBS was added, and the cells were cultured in an incubator at 37° C., 5% CO2, and a relative humidity of 90%. The medium was changed every other day. After fusion of the cells growing for 1-2 days, the cells were digested with 0.25% trypsin-EDTA (0.2%) mixed digestion solution at 37° C., and were sub-cultured at a certain ratio. The cells for use in experiment were those passaged for 40-60 generations.
# When the cell fusion degree reached 80%, the cells were digested and then suspended in complete medium, and seeded to Millicell plate at 1×10^6 cells·mL^−1. The medium was changed every other day, and 1 week later, the medium was changed every day. After culturing for 5 days, the resistance value reached a constant value (>200 Ω·cm^2), and the cells could be used in the transport experiment.
# After washing with 37° C. HBSS twice, the cells were incubated in a 37° C. culture incubator, wherein Rho-123 was added to the upper wells, and HBSS was added to the bottom wells. The incubation was carried out in a constant temperature shaker, and the solutions from the bottom wells were collected at each time point (0 min, 30 min, 90 min, 120 min), and stored at −20° C. for further use. The amount of Rho-123 permeated to the bottom well was determined by fluorospectrophotometer, wherein the emission wavelength was […], and the excitation wavelength was 530 nm.
# The permeability from cavity-surface to basal surface: drug-containing HBSS 0.35 mL was add to Apical (AP), and blank HBSS 1.2 mL was added to Basolateral (BL). The Millicell was placed at 37° C. in a shaker under shaking at 50 r·min^−1, 50 μL sample was collected from the bottom well at 0, 30, 90, 120 min, respectively, and the same volume of blank HBSS was supplemented. 3 wells were set for each concentration, and to the sample, an internal standard solution (50 μL) and ethyl acetate (350 μL) were added precisely. The mixture was mixed homogeneously under shaking, and centrifuged at 12000 rmp for 5 min. The supernatant (300 μL) was volatilized to dryness, and re-dissolved in 50 μL acetonitrile. The 10 μL resultant solution was used for determination.
# The permeability from basal surface to cavity surface: the drug is added to Basolateral (BL), and blank HBSS was added to Apical (AP), and the other steps were the same as those of the experiment for determining the permeability from cavity-surface to basal surface.
# The apparent permeability coefficient (Papp) of a drug reflects the ability of the drug to pass through cell monolayer and the drug absorption rate and extent. It can be calculated in accordance with the following equation: […]
# wherein, Q represents the amount of drug permeated in the t period, A represents cell surface area, and represents the area (0.6 cm^2) of supporting film in this model, and C0 represents an initial concentration. The unit of Papp is expressed as cm·s^−1.
# By measurement using LC/MS, the concentration of each sample was quantitated using its standard curve (50 nM-10000 nM).
# [3] = compound 100 pM + NGF 0.15 ng/mL
SMILES,Average score (growth of neurites of chick embryo dorsal root ganglion) ([1]; compound 1 pM + NGF 0.15 ng/mL),"Average score (growth of neurites of chick embryo dorsal root ganglion) [1, 3]","Neurologic deficit score ([2]; 30 mg/kg i.g. once/d for 3 d, behaviour within 6 h after ligation, x ± SEM, model group 3.92, sham 0.00)","neurologic deficit score decreased compared to the group administered with Compound 6 ([2]; 30 mg/kg i.g., BCAO-LBP mice)","MDA content ([2]; whole cerebrum, 30 mg/kg i.g. once/d for 3 d, x ± SEM, model group 40.94, sham 33.15) [nmol/g]",Papp at 120 min (in vitro) [×10⁻⁶ cm/s]
"CCC(C)[C@H](NC(=O)[C@@H]1CSCCN1S(=O)(=O)c1ccc(C)cc1)C(=O)OC (stereo partly drawn) [Compound 8, (2S,3R)-methyl-3-methyl-2((R)-(4-methylphenyl)sulfonyltetrahydro-1,4-thiazin-3-aminoformyl)valerate]",1.78,2.45,1.77 ± 0.28,about 15%,34.95 ± 1.55,19.2
"COC(=O)[C@@H](NC(=O)[C@@H]1CSCCN1S(=O)(=O)c1ccc(C)cc1)C(C)C [Compound 10, (S)-methyl-3-methyl-2((R)-(4-methylphenyl)sulfonyltetrahydro-1,4-thiazin-3-aminoformyl)butyrate]",1.54,2.38,–,–,–,34.1
"Cc1ccc(S(=O)(=O)N2CCSC[C@H]2C(=O)N[C@H](C(=O)OC(C)(C)C)C(C)C)cc1 [Compound 12, (S)-tert-butyl-3-methyl-2((R)-(4-methylphenyl)sulfonyltetrahydro-1,4-thiazin-3-aminoformyl)butyrate]",1.77,2.48,–,–,–,22.5
"COC(=O)[C@H](NC(=O)[C@@H]1CSCCN1S(=O)(=O)c1ccc(C)cc1)C(C)C [Compound 14, (R)-methyl-3-methyl-2((R)-(4-methylphenyl)sulfonyltetrahydro-1,4-thiazin-3-aminoformyl)butyrate]",1.44,2.35,–,–,–,33.2
"COC(=O)[C@H](Cc1ccccc1)NC(=O)[C@@H]1CSCCN1S(=O)(=O)c1ccc(C)cc1 [Compound 16, (S)-methyl-3-phenyl-2((R)-(4-methylphenyl)sulfonyltetrahydro-1,4-thiazin-3-aminoformyl)propionate]",1.57,2.69,–,–,–,39.7
"CCOC(=O)[C@H](Cc1ccccc1)NC(=O)[C@@H]1CSCCN1S(=O)(=O)c1ccc(C)cc1 [Compound 17, (S)-ethyl-3-phenyl-2((R)-(4-methylphenyl)sulfonyltetrahydro-1,4-thiazin-3-aminoformyl)propionate]",1.75,2.71,–,–,–,22.7
"Cc1ccc(S(=O)(=O)N2CCSC[C@H]2C(=O)N[C@@H](Cc2ccccc2)C(=O)OC(C)(C)C)cc1 [Compound 19, (S)-tert-butyl-3-phenyl-2((R)-(4-methylphenyl)sulfonyltetrahydro-1,4-thiazin-3-aminoformyl)propionate]",1.55,2.49,–,–,–,42.3
"CCOC(=O)[C@@H](Cc1ccccc1)NC(=O)[C@@H]1CSCCN1S(=O)(=O)c1ccc(C)cc1 [Compound 21, (R)-ethyl-3-phenyl-2((R)-(4-methylphenyl)sulfonyltetrahydro-1,4-thiazin-3-aminoformyl)propionate]",1.79,2.74,–,–,–,25.8
"Cc1ccc(S(=O)(=O)N2CCSC[C@H]2C(=O)N[C@H](Cc2ccccc2)C(=O)OC(C)C)cc1 [Compound 24, (R)-isopropyl-3-phenyl-2((R)-(4-methylphenyl)sulfonyltetrahydro-1,4-thiazin-3-aminoformyl)propionate]",1.89,2.80,–,–,–,37.8
"Cc1ccc(S(=O)(=O)N2CCSC[C@H]2C(=O)N[C@@H](CCc2ccccc2)C(=O)OC(C)C)cc1 [Compound 25, (S)-isopropyl-4-phenyl-2((R)-(4-methylphenyl)sulfonyltetrahydro-1,4-thiazin-3-aminoformyl)butyrate]",1.76,2.68,–,–,–,27.3
"Cc1ccc(S(=O)(=O)N2CCSC[C@H]2C(=O)N[C@H](CCc2ccccc2)C(=O)OC(C)C)cc1 [Compound 26, (R)-isopropyl-4-phenyl-2((R)-(4-methylphenyl)sulfonyltetrahydro-1,4-thiazin-3-aminoformyl)butyrate]",1.80,2.78,–,–,–,35.9
